Experiments:
[1] = biological target: Rhodopsin kinase GRK1 (Homo sapiens) (UniProt Q15835); conditions: Compound concentration 1000.0 nM
[2] = biological target: Serine/threonine-protein kinase RIO3 (Homo sapiens) (UniProt O14730); conditions: Compound concentration 1000.0 nM
[3] = biological target: Serine/threonine-protein kinase RIO2 (Homo sapiens) (UniProt Q9BVS4); conditions: Compound concentration 1000.0 nM
[4] = tested on: Receptor-type tyrosine-protein kinase FLT3 (Homo sapiens), P36888 [UNDEFINED MUTATION]; conditions: Compound concentration 1000.0 nM
[5] = tested on: Tyrosine-protein kinase ABL1 (Homo sapiens), P00519 [F317L]; conditions: Compound concentration 1000.0 nM
[6] = biological target: Membrane-associated tyrosine- and threonine-specific cdc2-inhibitory kinase (Homo sapiens) (UniProt Q99640); conditions: Compound concentration 1000.0 nM
[7] = biological target: Tyrosine-protein kinase ABL1 (Homo sapiens) (UniProt P00519); conditions: Compound concentration 1000.0 nM
[8] = tested on: Proto-oncogene tyrosine-protein kinase receptor Ret (Homo sapiens), P07949 [V804M]; conditions: Compound concentration 1000.0 nM
[9] = tested on: Tyrosine-protein kinase ABL1 (Homo sapiens), P00519 [Q252H]; conditions: Compound concentration 1000.0 nM
[10] = biological target: Dual specificity mitogen-activated protein kinase kinase 1 (Homo sapiens) (UniProt Q02750); conditions: Compound concentration 1000.0 nM
[11] = biological target: Mitogen-activated protein kinase kinase kinase kinase 3 (Homo sapiens) (UniProt Q8IVH8); conditions: Compound concentration 1000.0 nM
[12] = biological target: Ribosomal protein S6 kinase alpha-6 (Homo sapiens) (UniProt Q9UK32); conditions: Compound concentration 1000.0 nM
Ribosomal protein S6 kinase alpha-6 (Homo sapiens), sequence (Q9UK32 whole entry): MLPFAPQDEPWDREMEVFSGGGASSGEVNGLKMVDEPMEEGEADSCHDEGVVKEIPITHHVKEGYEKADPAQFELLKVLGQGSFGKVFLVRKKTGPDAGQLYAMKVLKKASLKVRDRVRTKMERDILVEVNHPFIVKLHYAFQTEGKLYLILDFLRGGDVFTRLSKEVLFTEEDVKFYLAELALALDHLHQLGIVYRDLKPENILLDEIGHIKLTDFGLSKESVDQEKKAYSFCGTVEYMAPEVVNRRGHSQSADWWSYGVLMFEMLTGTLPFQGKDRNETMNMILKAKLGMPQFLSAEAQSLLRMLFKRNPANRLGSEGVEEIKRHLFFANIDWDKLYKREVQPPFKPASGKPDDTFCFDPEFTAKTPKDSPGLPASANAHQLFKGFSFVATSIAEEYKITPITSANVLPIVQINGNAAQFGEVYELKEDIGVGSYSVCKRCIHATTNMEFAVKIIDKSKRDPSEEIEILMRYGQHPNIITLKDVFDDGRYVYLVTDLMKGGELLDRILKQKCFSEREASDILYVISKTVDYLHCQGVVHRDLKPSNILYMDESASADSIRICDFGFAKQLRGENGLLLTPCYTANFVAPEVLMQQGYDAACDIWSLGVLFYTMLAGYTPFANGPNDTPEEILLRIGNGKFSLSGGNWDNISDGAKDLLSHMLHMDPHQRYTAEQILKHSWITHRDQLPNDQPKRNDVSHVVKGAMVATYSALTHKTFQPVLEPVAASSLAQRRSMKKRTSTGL

[13] = biological target: Mitogen-activated protein kinase 9 (Homo sapiens) (UniProt P45984); conditions: Compound concentration 1000.0 nM
[14] = biological target: Ephrin type-B receptor 1 (Homo sapiens) (UniProt P54762); conditions: Compound concentration 1000.0 nM
[15] = biological target: Serine/threonine-protein kinase TAO3 (Homo sapiens) (UniProt Q9H2K8); conditions: Compound concentration 1000.0 nM
Serine/threonine-protein kinase TAO3 (Homo sapiens), sequence (Q9H2K8 whole entry): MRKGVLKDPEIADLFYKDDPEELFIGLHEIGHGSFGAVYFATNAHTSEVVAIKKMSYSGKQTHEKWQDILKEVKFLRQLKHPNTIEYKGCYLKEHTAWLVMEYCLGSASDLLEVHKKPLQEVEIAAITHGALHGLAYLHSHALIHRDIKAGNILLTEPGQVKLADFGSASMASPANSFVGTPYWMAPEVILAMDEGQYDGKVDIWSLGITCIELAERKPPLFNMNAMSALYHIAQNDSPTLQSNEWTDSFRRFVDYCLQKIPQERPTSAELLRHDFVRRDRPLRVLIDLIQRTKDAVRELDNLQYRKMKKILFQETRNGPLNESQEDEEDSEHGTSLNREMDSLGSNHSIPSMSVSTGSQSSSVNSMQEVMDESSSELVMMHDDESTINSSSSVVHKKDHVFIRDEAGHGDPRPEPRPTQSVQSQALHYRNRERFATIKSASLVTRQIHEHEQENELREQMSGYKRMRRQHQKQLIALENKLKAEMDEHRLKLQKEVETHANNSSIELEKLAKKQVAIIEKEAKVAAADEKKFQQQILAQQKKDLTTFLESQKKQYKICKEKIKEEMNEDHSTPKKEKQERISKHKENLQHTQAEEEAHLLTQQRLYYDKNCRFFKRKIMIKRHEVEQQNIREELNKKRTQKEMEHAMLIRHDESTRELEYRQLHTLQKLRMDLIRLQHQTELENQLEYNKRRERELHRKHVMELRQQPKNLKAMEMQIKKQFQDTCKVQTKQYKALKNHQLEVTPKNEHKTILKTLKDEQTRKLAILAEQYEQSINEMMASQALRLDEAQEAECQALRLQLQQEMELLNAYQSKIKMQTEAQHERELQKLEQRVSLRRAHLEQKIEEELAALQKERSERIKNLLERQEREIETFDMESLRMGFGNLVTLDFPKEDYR

[16] = biological target: D(1A) dopamine receptor (Homo sapiens) (UniProt P21728); assay: D1 (h) Eurofins-Cerep Cellular and Nuclear Receptor Functional Assays; conditions: Compound concentration 10.0 uM
D(1A) dopamine receptor (Homo sapiens), sequence (P21728 whole entry): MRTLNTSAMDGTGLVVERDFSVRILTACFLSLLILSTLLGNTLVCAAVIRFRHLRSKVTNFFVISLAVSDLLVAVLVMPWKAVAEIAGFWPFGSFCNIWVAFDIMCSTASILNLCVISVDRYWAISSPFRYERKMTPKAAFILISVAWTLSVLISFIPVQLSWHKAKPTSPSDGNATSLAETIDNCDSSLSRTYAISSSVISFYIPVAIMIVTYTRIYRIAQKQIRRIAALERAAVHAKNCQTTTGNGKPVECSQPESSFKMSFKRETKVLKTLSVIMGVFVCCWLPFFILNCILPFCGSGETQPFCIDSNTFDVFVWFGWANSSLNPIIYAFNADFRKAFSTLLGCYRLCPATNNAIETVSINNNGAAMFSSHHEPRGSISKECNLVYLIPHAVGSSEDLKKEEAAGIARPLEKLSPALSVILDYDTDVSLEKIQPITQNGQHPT

[17] = biological target: Phosphatidylinositol 5-phosphate 4-kinase type-2 beta (Homo sapiens) (UniProt P78356); conditions: Compound concentration 1000.0 nM
[18] = biological target: 5-hydroxytryptamine receptor 2A (Homo sapiens) (UniProt P28223); conditions: Compound concentration 10.0 uM
5-hydroxytryptamine receptor 2A (Homo sapiens), sequence (P28223 whole entry): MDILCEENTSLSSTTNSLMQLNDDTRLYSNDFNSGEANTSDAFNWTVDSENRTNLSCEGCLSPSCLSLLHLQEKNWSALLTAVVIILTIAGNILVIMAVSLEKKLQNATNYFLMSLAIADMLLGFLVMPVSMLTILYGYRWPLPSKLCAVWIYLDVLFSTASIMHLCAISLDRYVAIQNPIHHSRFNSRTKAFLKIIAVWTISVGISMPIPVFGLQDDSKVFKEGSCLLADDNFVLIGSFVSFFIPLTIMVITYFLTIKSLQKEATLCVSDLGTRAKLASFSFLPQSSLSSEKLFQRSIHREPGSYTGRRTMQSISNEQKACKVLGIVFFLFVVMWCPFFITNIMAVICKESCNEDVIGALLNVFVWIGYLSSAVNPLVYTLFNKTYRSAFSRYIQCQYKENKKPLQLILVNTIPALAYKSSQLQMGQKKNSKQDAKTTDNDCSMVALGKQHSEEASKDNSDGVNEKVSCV

[19] = biological target: Ribosomal protein S6 kinase alpha-6 (Homo sapiens) (UniProt Q9UK32); conditions: Compound concentration 1000.0 nM; remark: listed apart in the source
[20] = biological target: Serine/threonine-protein kinase Chk1 (Homo sapiens) (UniProt O14757); conditions: Compound concentration 1000.0 nM
[21] = biological target: Vascular endothelial growth factor receptor 2 (Homo sapiens) (UniProt P35968); conditions: Compound concentration 1000.0 nM
[22] = biological target: Mitogen-activated protein kinase kinase kinase 5 (Homo sapiens) (UniProt Q99683); conditions: Compound concentration 1000.0 nM
[23] = biological target: Dual specificity mitogen-activated protein kinase kinase 4 (Homo sapiens) (UniProt P45985); conditions: Compound concentration 1000.0 nM
[24] = biological target: Tyrosine-protein kinase HCK (Homo sapiens) (UniProt P08631); conditions: Compound concentration 1000.0 nM
[25] = biological target: Fibroblast growth factor receptor 1 (Homo sapiens) (UniProt P11362); conditions: Compound concentration 1000.0 nM
[26] = biological target: 5-hydroxytryptamine receptor 1D (Homo sapiens) (UniProt P28221); conditions: Compound concentration 10.0 uM
5-hydroxytryptamine receptor 1D (Homo sapiens), sequence (P28221 whole entry): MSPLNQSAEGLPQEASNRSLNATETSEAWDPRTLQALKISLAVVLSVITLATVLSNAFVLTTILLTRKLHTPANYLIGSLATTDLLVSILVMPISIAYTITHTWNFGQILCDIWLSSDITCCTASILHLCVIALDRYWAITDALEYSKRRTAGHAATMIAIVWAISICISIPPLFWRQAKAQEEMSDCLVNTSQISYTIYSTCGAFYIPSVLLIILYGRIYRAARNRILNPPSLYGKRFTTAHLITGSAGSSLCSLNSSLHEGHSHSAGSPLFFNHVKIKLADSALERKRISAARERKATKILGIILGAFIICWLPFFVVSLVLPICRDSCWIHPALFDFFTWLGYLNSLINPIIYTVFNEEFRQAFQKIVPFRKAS

[27] = biological target: Fibroblast growth factor receptor 3 (Homo sapiens) (UniProt P22607); conditions: Compound concentration 1000.0 nM
[28] = biological target: Leucine-rich repeat serine/threonine-protein kinase 2 (Homo sapiens) (UniProt Q5S007); conditions: Compound concentration 1000.0 nM
[29] = biological target: Cyclin-dependent kinase 5 (Homo sapiens) (UniProt Q00535); conditions: Compound concentration 1000.0 nM
Cyclin-dependent kinase 5 (Homo sapiens), sequence (Q00535 whole entry, looked up): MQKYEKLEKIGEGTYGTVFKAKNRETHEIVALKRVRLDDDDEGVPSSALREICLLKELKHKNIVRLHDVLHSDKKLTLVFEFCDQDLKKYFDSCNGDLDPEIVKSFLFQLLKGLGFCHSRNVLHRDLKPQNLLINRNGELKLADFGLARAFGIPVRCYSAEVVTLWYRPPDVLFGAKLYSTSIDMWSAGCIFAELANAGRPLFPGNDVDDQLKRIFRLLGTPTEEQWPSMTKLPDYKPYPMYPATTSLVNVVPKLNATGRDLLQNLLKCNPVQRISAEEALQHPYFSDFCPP

[30] = biological target: Mitogen-activated protein kinase kinase kinase 15 (Homo sapiens) (UniProt Q6ZN16); conditions: Compound concentration 1000.0 nM
[31] = biological target: D(1B) dopamine receptor (Homo sapiens) (UniProt P21918); conditions: Compound concentration 10.0 uM
[32] = biological target: Tyrosine-protein kinase Fer (Homo sapiens) (UniProt P16591); conditions: Compound concentration 1000.0 nM
[33] = biological target: Ribosomal protein S6 kinase alpha-3 (Homo sapiens) (UniProt P51812); conditions: Compound concentration 1000.0 nM
[34] = biological target: Serine/threonine-protein kinase MARK2 (Homo sapiens) (UniProt Q7KZI7); conditions: Compound concentration 1000.0 nM
[35] = biological target: Ephrin type-A receptor 4 (Homo sapiens) (UniProt P54764); conditions: Compound concentration 1000.0 nM
[36] = biological target: Mast/stem cell growth factor receptor Kit (Homo sapiens) (UniProt P10721); conditions: Compound concentration 1000.0 nM
Mast/stem cell growth factor receptor Kit (Homo sapiens), sequence (P10721 whole entry): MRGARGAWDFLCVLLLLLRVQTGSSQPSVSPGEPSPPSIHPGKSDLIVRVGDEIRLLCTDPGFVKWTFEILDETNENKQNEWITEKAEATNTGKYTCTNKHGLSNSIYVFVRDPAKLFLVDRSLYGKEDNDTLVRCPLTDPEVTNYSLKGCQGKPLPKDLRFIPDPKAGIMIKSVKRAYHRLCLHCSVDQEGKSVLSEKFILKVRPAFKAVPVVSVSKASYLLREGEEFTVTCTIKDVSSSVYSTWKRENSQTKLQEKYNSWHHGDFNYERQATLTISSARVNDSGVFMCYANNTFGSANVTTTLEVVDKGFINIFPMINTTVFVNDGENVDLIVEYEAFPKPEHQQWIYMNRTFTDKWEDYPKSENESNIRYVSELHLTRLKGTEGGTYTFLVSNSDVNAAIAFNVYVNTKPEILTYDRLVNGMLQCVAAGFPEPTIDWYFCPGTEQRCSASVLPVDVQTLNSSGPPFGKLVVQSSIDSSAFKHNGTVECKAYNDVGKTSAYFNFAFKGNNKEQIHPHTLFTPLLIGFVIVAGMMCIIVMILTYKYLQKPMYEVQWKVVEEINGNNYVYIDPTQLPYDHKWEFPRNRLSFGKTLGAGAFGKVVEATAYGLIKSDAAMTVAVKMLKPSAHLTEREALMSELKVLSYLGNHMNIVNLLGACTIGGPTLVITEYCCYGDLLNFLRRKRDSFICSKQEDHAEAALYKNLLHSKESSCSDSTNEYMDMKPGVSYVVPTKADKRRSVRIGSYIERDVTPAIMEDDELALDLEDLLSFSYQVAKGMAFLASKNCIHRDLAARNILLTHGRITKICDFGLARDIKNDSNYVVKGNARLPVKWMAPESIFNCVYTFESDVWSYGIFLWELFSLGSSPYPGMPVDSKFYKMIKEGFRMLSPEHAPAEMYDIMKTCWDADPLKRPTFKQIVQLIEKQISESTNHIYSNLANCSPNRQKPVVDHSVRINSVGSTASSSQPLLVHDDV

[37] = tested on: Receptor-type tyrosine-protein kinase FLT3 (Homo sapiens), P36888 [D835H]; conditions: Compound concentration 1000.0 nM
[38] = biological target: Cyclin-G-associated kinase (Homo sapiens) (UniProt O14976); conditions: Compound concentration 1000.0 nM
[39] = biological target: AP2-associated protein kinase 1 (Homo sapiens) (UniProt Q2M2I8); conditions: Compound concentration 1000.0 nM
[40] = biological target: Serine/threonine-protein kinase SIK3 (Homo sapiens) (UniProt Q9Y2K2); conditions: Compound concentration 1000.0 nM
[41] = biological target: Serine/threonine-protein kinase 33 (Homo sapiens) (UniProt Q9BYT3); conditions: Compound concentration 1000.0 nM
[42] = biological target: Mitogen-activated protein kinase kinase kinase 4 (Homo sapiens) (UniProt Q9Y6R4); conditions: Compound concentration 1000.0 nM
[43] = tested on: Mast/stem cell growth factor receptor Kit (Homo sapiens), P10721 [D816H]; conditions: Compound concentration 1000.0 nM
Mast/stem cell growth factor receptor Kit (Homo sapiens), P10721 [D816H], sequence (P10721 whole entry D816H, canonical isoform): as the sequence (P10721 whole entry) above, with D816H counted along it

[44] = biological target: Casein kinase I isoform epsilon (Homo sapiens) (UniProt P49674); conditions: Compound concentration 1000.0 nM
Casein kinase I isoform epsilon (Homo sapiens), sequence (P49674 whole entry, looked up, canonical isoform): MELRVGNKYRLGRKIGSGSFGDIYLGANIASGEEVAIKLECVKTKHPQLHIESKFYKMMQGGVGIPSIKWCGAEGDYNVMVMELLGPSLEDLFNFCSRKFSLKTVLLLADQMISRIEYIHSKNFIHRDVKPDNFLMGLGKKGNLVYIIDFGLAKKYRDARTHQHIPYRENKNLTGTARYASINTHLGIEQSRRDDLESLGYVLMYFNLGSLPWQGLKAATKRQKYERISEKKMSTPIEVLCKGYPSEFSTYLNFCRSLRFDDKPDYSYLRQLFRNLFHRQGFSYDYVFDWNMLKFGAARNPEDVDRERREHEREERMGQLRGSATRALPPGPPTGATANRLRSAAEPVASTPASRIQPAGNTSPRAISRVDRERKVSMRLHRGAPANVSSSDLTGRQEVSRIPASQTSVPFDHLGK

[45] = biological target: MAP kinase-activated protein kinase 2 (Homo sapiens) (UniProt P49137); conditions: Compound concentration 1000.0 nM

O=C(N1CCS(=O)(=O)CC1)N1C[C@H](c2ccc(OC(F)(F)F)cc2)C[C@H](c2nc(C3CC3)no2)C1 [BAY-386]
inactive: residual activity [1] 92% | residual activity [2] 85% | residual activity [3] 100% | residual activity [4] 100% | residual activity [5] 92% | residual activity [6] 100% | residual activity [7] 92% | residual activity [8] 100% | residual activity [9] 100% | residual activity [10] 91% | residual activity [11] 100% | residual activity [12] 76% | residual activity [13] 84% | residual activity [14] 100% | residual activity [15] 100% | residual activity [17] 73% | inhibition [18] 10.5% | residual activity [19] 100% | residual activity [20] 100% | residual activity [21] 88% | residual activity [22] 100% | residual activity [23] 95% | residual activity [24] 100% | residual activity [25] 100% | inhibition [26] 5.17% | residual activity [27] 100% | residual activity [28] 100% | residual activity [29] 83% | residual activity [30] 100% | inhibition [31] 9.95% | residual activity [32] 100% | residual activity [33] 100% | residual activity [34] 100% | residual activity [35] 100% | residual activity [36] 100% | residual activity [37] 92% | residual activity [38] 100% | residual activity [39] 99% | residual activity [40] 77% | residual activity [41] 99% | residual activity [42] 83% | residual activity [43] 71% | residual activity [44] 100% | residual activity [45] 100%
-1.4%: % of Control Agonist Response (Mean n=2) [16]
-31.6%: % Inhibition of Control Agonist Response (Mean n=2) [16]

Cc1noc([C@H]2C[C@@H](c3ccc(C(F)(F)F)cc3)CN(C(=O)N3CCS(=O)(=O)C3)C2)n1 [BAY-448]
inactive: residual activity [1] 82% | residual activity [2] 100% | residual activity [3] 100% | residual activity [4] 100% | residual activity [5] 85% | residual activity [6] 100% | residual activity [7] 100% | residual activity [8] 100% | residual activity [9] 100% | residual activity [10] 100% | residual activity [11] 100% | residual activity [12] 98% | residual activity [13] 99% | residual activity [14] 100% | residual activity [15] 100% | residual activity [17] 100% | inhibition [18] -2.96% | residual activity [19] 100% | residual activity [20] 100% | residual activity [21] 100% | residual activity [22] 100% | residual activity [23] 100% | residual activity [24] 100% | residual activity [25] 100% | inhibition [26] -9.27% | residual activity [27] 100% | residual activity [28] 65% | residual activity [29] 100% | residual activity [30] 100% | inhibition [31] 22.6% | residual activity [32] 82% | residual activity [33] 100% | residual activity [34] 100% | residual activity [35] 100% | residual activity [36] 84% | residual activity [37] 100% | residual activity [38] 97% | residual activity [39] 100% | residual activity [40] 78% | residual activity [41] 100% | residual activity [42] 72% | residual activity [43] 100% | residual activity [44] 100% | residual activity [45] 97%
13.9%: % Inhibition of Control Agonist Response (Mean n=2) [16]
-1.2%: % of Control Agonist Response (Mean n=2) [16]

Reference: ChEMBL document CHEMBL4507269, “Data for DCP probe BAY-386” (2021)
